Reference: BindingDB's records for doi:10.1016/s1074-5521(98)90168-5 (University of California San Francisco, 1998)
pKd: −log10 of the molar value.

How the values were obtained:
[1] = biological target: T1, Thyroid hormone receptor beta (Homo sapiens, UniProt P10828); assay: TR Receptor Ligand Binding Assay
T1 sequence (P10828 whole entry): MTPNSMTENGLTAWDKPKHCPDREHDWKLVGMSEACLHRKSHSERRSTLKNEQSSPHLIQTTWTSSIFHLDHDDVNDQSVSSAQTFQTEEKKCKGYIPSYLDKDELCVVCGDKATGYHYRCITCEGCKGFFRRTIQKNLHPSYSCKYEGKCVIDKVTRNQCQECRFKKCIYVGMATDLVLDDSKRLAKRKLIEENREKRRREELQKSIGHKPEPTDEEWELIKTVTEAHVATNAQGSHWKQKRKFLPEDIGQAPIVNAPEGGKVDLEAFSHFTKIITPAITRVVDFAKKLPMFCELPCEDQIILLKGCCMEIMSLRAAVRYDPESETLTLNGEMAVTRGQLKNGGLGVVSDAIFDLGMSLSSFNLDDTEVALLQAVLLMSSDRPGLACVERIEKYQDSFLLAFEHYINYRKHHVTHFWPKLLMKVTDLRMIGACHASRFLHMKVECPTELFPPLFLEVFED
Excerpt: (§1) Human thyroid hormone receptor alpha and beta (hTR alpha1) and (hTR beta1) were produced using TNT coupled reticulocyte lysate system from Promega.

[2] = biological target: T2, Thyroid hormone receptor alpha (Homo sapiens, UniProt P10827); assay: TR Receptor Ligand Binding Assay
T2 sequence (P10827 whole entry): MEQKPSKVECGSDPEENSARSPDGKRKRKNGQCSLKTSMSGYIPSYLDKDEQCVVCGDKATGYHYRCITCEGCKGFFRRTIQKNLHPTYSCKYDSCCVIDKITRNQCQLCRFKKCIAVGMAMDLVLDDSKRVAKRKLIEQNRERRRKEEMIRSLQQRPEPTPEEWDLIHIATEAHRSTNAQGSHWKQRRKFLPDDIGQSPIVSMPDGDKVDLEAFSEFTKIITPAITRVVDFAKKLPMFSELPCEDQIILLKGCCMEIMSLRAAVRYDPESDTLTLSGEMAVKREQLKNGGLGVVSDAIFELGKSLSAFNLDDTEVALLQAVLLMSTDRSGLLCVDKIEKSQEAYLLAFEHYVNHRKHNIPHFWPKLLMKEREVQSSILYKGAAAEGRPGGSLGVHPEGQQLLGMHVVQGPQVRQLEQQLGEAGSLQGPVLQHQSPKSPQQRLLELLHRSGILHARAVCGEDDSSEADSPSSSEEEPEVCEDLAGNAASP
Excerpt: as §1

pKd [1]: 8.01 | pKd [2]: 8.01
SMILES: Cc1cc(C[C@H](N)C(=O)O)cc(C)c1Oc1ccc(O)c(C(C)C)c1 [Dimethyl-isopropyl-T3 (DIMIT)]
